Measured values reported in US10501435B2, “Substituted quinazoline compounds and uses thereof for modulating glucocerebrosidase activity” (Northwestern University, priority 2015, dated 2019).

Key:
wild-type GCase = wild-type GCase (Homo sapiens (Human), UniProt P04062); experiment: GCase enzyme activity assay (4MU-β-Glc substrate, no taurocholate); type: biochemical
Method: In previous studies, high concentrations of taurocholate (4-10 mM) were used to improve the signal in GCase enzyme activity assays^16,27,28. […] Here we describe our modifications of the substituents on the quinazoline ring.
4-Methylumbelliferyl β-D-glucopyranoside (4MU-β-Glc), 4-methylumbelliferyl α-D-glucopyranoside, 4-methylumbelliferyl α-D-galactopyranoside, and buffer components were purchased from Sigma-Aldrich (St. Louis, Mo.). The recombinant wild-type GCase enzyme velaglucerase alfa (Vpriv®, Shire Human Genetic Therapies, Inc.), acid α-glucosidase enzyme alglucosidase alfa (Lumizyme®, Genzyme Corporation), α-galactosidase A enzyme agalsidase beta (Fabrazyme®, Genzyme Corporation) were used in activity assays. […] A solution of 1 M sodium hydroxide and 1 M glycine (pH 10) was used as the stop solution for all three enzyme activity assays.
GCase Enzyme Activity Assay. The compounds in DMSO solution (0.5 μL/well) were transferred to a black 96-well plate (the final titration started from 100 μM, a 12 or 24-point 2-fold dilution series). […] After 5 min of incubation at room temperature, the enzyme reaction was initiated by the addition of blue substrate (4MU-β-Glc) (33 μL/well). The final concentration of the blue substrate was 1.5 mM. The blue substrate reaction was terminated by the addition of 33 μL/well stop solution (1 M NaOH and 1 M glycine mixture, pH 10) after 30 min of incubation at 37° C. […] The selected compounds were further assayed under pH 5.0 and pH 7.0 to evaluate their selectivity under various pH conditions.

Glucocerebrosidase = Glucocerebrosidase (Homo sapiens (Human), UniProt P04062); experiment: Glucocerebrosidase activity assay with blue substrate (4MU-Glc); type: biochemical; details: cells marked (act); for AC50: read-out: IC50 or AC50 (μM): AC50 (act)
Method: The compounds in DMSO solution 0.5 μL/well were transferred to a black 96-well plate. The final titration was 24 nM to 50 μM, 12 concentrations, 2 times dilution. […] After 5 min of incubation at room temperature, the enzyme reaction was initiated by the addition of 33 μL/well blue substrate. Final concentrations of the blue substrate (4MU-Glc) was 1.5 mM. The blue substrate reaction was terminated by the addition of 33 μL/well stop solution (1 M NaOH and 1 M glycine mixture, pH 10) after 30 min of incubation at 37° C. The fluorescence was then measured in the Biotek Synergy H1 multi-mode plate reader with Ex=365 nm and Em=440 nm.
Additional compounds were prepared and tested according to the procedures provided in the examples above.
Additional substituted quinazoline compounds were prepared and tested according to the procedures provided in the examples above.

Chain of Glucocerebrosidase (P04062 40-536): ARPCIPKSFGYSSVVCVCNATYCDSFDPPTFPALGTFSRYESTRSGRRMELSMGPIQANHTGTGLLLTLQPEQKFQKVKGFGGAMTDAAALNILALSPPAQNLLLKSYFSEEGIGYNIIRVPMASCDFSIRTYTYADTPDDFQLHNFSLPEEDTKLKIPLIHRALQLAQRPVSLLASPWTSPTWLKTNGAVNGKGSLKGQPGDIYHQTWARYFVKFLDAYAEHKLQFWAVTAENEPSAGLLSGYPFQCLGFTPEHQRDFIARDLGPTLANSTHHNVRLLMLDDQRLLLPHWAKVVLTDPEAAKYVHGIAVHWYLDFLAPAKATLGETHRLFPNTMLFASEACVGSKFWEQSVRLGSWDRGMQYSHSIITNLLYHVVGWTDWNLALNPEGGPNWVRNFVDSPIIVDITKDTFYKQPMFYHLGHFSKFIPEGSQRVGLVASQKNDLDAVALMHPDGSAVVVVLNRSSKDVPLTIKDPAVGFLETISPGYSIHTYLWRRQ
Chain of wild-type GCase (P04062 40-536): as above

Row | SMILES | AC50 (Glucocerebrosidase) [µM] | other results
1 | c1cncc(-c2nc(NC3CCCc4ccccc43)c3ccccc3n2)c1 (stereo not shown) [Compound 9d] |  | inhibitory activity against GCase (in words) (wild-type GCase): low micromolar range
2 | c1cncc(-c2nc(NC3CCc4ccccc43)c3ccccc3n2)c1 (stereo not shown) [Compound 9e] |  | inhibitory activity against GCase (in words) (wild-type GCase): low micromolar range
3 | c1cncc(-c2nc(NC3COc4ccccc4C3)c3ccccc3n2)c1 (stereo not shown) [Compound 9f] |  | IC50 (wild-type GCase; Table 4, pH 5.9, mean ± SD, triplicate): 0.035 ± 0.003 µM
4 | CN(CC1COc2ccccc2O1)c1nc(-c2cccnc2)nc2ccccc12 (stereo not shown) [compound 3] | 1.78 | 
5 | CN(Cc1ccccn1)c1nc(-c2cccnc2)nc2ccccc12 [compound 5] | 35.5 | 
6 | CN(CC1COCCO1)c1nc(-c2cccnc2)nc2ccccc12 (stereo not shown) [compound 6] | 11.2 | 
7 | CN(Cc1cccnc1)c1nc(-c2cccnc2)nc2ccccc12 [compound 7] | 12.6 | 
8 | CN(Cc1ccncc1)c1nc(-c2cccnc2)nc2ccccc12 [compound 8] | 15.8 | 
9 | CN(Cc1cnccn1)c1nc(-c2cccnc2)nc2ccccc12 [compound 9] | 14.1 | 
10 | CN(Cc1cnc2ccccc2n1)c1nc(-c2cccnc2)nc2ccccc12 [compound 10] | 0.89 | 
11 | CN(Cc1ccc2c(c1)OCO2)c1nc(-c2cccnc2)nc2ccccc12 [compound 11] | 1 | 
12 | CN1Cc2ccc(CN(C)c3nc(-c4cccnc4)nc4ccccc34)cc2C1 [compound 13] | 44.7 | 
13 | CN(Cc1nc2ccccc2s1)c1nc(-c2cccnc2)nc2ccccc12 [compound 14] | 1.12 | 
14 | COc1ccccc1CN(C)c1nc(-c2cccnc2)nc2ccccc12 [compound 16] | 3.13 | 
15 | CN(Cc1ccc2ccccc2c1)c1nc(-c2cccnc2)nc2ccccc12 [compound 17] | 1.56 | 
16 | CN(Cc1nc2ccccc2o1)c1nc(-c2cccnc2)nc2ccccc12 [compound 18] | 11.2 | 
17 | CN(Cc1ccc2c(c1)OCCO2)c1nc(-c2cccnc2)nc2ccccc12 [compound 19] | 3.98 | 

Row | SMILES | AC50 (Glucocerebrosidase) [µM] | other results
18 | CN(Cc1ccc2nsnc2c1)c1nc(-c2cccnc2)nc2ccccc12 [compound 21] | 3.55 | 
19 | CC(C)(C)OC(=O)N1CCN(c2nc(-c3cccnc3)nc3ccccc23)CC1 [compound 22] | 10 | 
20 | CN(Cc1scc2c1OCCO2)c1nc(-c2cccnc2)nc2ccccc12 [compound 24] | 2 | 
21 | CC(C)Cc1noc(CN(C)c2nc(-c3cccnc3)nc3ccccc23)n1 [compound 25] | 35.5 | 
22 | Cc1ccc(S(=O)(=O)N2CCN(c3nc(-c4cccnc4)nc4ccccc34)CC2)cc1 [compound 26] | 1 | 
23 | c1cncc(-c2nc(NCCC3COc4ccccc4O3)c3ccccc3n2)c1 (stereo not shown) [compound 27] | 0.6 | 
24 | CCN(CC1COc2ccccc2O1)c1nc(-c2cccnc2)nc2ccccc12 (stereo not shown) [compound 28] | 2.82 | 
25 | c1cncc(-c2nc(N3CCN(CC4COc5ccccc5O4)CC3)c3ccccc3n2)c1 (stereo not shown) [compound 30] | 3.13 | 
26 | CN(Cc1ccc(-n2ccnc2)cc1)c1nc(-c2cccnc2)nc2ccccc12 [compound 31] | 19.9 | 
27 | CN(CCC1COc2ccccc2O1)c1nc(-c2cccnc2)nc2ccccc12 (stereo not shown) [compound 32] | 3.16 | 
28 | Nc1nc(-c2cccnc2)nc2ccccc12 [compound 35] |  | IC50 or AC50 (μM): AC50 (act) (Glucocerebrosidase): Weak (act)
29 | CN1CCN(c2ccc(CNc3nc(-c4cccnc4)nc4ccccc34)cc2)CC1 [compound 36] | 39.8 | 
30 | [N-]=[N+]=Nc1c(F)c(F)c(CNc2nc(-c3cccnc3)nc3ccccc23)c(F)c1F [compound 37] |  | IC50 or AC50 (μM): AC50 (act) (Glucocerebrosidase): Weak (act)
31 | CN1CCN(c2ccc(C(=O)N3CCN(c4nc(-c5cccnc5)nc5ccccc45)CC3)cc2)CC1 [compound 38] |  | IC50 or AC50 (μM): AC50 (act) (Glucocerebrosidase): Weak (act)
32 | c1ccc(Nc2nc(-c3cccnc3)nc3ccccc23)cc1 [compound 50] |  | IC50 or AC50 (μM): AC50 (act) (Glucocerebrosidase): Weak (act)
33 | CC(C)(C)Nc1nc(-c2cccnc2)nc2ccccc12 [compound 54] |  | IC50 or AC50 (μM): AC50 (act) (Glucocerebrosidase): Weak (act)
34 | CN(c1nc(-c2cccnc2)nc2ccccc12)C1CCCCC1 [compound 56] | 5.01 | 
